System: MV-4-11 cells
Assay: Gene expression microarray analysis (Affymetrix PrimeView) and GSEA
Format: cell-based, human
Set-up: RFU PODN (11730768_x_at) / Fold change /veh PODN (11730768_x_at) / RFU LINC00158 (11744669_a_at) / Fold change /veh LINC00158 (11744669_a_at) / RFU DUSP10 (11751237_a_at) / Fold change /veh DUSP10 (11751237_a_at) / RFU ID3 (11757404_x_at) / Fold change /veh ID3 (11757404_x_at) / RFU PLEKHG5 (11737974_s_at) / Fold change /veh PLEKHG5 (11737974_s_at) / RFU LRRC4B (11730491_at) / Fold change /veh LRRC4B (11730491_at) / RFU GIMAP4 (11747438_a_at) / Fold change /veh GIMAP4 (11747438_a_at) / RFU KRT8 (11758183_x_at) / Fold change /veh KRT8 (11758183_x_at) / RFU CNN1 (11734310_a_at) / Fold change /veh CNN1 (11734310_a_at) / RFU VPS37D (11726825_at) / Fold change /veh VPS37D (11726825_at) / RFU C10orf10 (11716522_x_at) / Fold change /veh C10orf10 (11716522_x_at) / RFU KIR2DL2 /// KIR2DL4 /// KIR2DL5A /// KIR2DL5B /// KIR2DS1 /// KIR2DS2 /// KIR2DS3 /// KIR2DS4 /// KIR3DL3 /// KIR3DL3 /// KIR3DS1 (11738374_at) / Fold change /veh KIR2DL2 /// KIR2DL4 /// KIR2DL5A /// KIR2DL5B /// KIR2DS1 /// KIR2DS2 /// KIR2DS3 /// KIR2DS4 /// KIR3DL3 /// KIR3DL3 /// KIR3DS1 (11738374_at) / RFU C1QL1 (11718748_at) / Fold change /veh C1QL1 (11718748_at) / RFU TMPRSS4 (11747572_a_at) / Fold change /veh TMPRSS4 (11747572_a_at) / RFU HAMP (11756126_x_at) / Fold change /veh HAMP (11756126_x_at) / RFU RNFT2 (11725882_a_at) / Fold change /veh RNFT2 (11725882_a_at) / RFU NR4A2 (11747474_a_at) / Fold change /veh NR4A2 (11747474_a_at) / RFU ABCC12 (11746883_a_at) / Fold change /veh ABCC12 (11746883_a_at) / RFU TMEM136 (11760407_x_at) / Fold change /veh TMEM136 (11760407_x_at) / RFU CLDN22 /// WWC2 (11732394_at) / Fold change /veh CLDN22 /// WWC2 (11732394_at) / RFU HLA-DPB1 (11760878_x_at) / Fold change /veh HLA-DPB1 (11760878_x_at) / RFU SPINT1 (11716480_a_at) / Fold change /veh SPINT1 (11716480_a_at) / RFU GAP43 (11754022_s_at) / Fold change /veh GAP43 (11754022_s_at) / RFU A4GNT (11735810_at) / Fold change /veh A4GNT (11735810_at) / RFU PRB3 (11715151_x_at) / Fold change /veh PRB3 (11715151_x_at) / RFU TUBB4B (11761932_at) / Fold change /veh TUBB4B (11761932_at) / RFU CAPN14 (11732068_a_at) / Fold change /veh CAPN14 (11732068_a_at) / RFU TMCC2 (11721928_a_at) / Fold change /veh TMCC2 (11721928_a_at) / RFU IRGQ (11745062_a_at) / Fold change /veh IRGQ (11745062_a_at) / RFU FAM174B (11720279_a_at) / Fold change /veh FAM174B (11720279_a_at) / RFU TMPRSS4 (11748680_a_at) / Fold change /veh TMPRSS4 (11748680_a_at) / RFU FAM212B (11763350_a_at) / Fold change /veh FAM212B (11763350_a_at) / RFU PLEKHG5 (11743358_a_at) / Fold change /veh PLEKHG5 (11743358_a_at) / RFU ZSCAN30 (11745921_a_at) / Fold change /veh ZSCAN30 (11745921_a_at) / RFU CMKLR1 (11741424_a_at) / Fold change /veh CMKLR1 (11741424_a_at) / RFU LOC101060620 /// MAPK8IP1 (11723275_at) / Fold change /veh LOC101060620 /// MAPK8IP1 (11723275_at) / RFU SPTSSB (11747773_x_at) / Fold change /veh SPTSSB (11747773_x_at) / RFU PRSS12 (11739890_at) / Fold change /veh PRSS12 (11739890_at) / RFU BIN1 (11741810_x_at) / Fold change /veh BIN1 (11741810_x_at) / RFU WNT11 (11732464_a_at) / Fold change /veh WNT11 (11732464_a_at) / RFU C10orf10 (11716521_a_at) / Fold change /veh C10orf10 (11716521_a_at) / RFU C5orf56 (11738089_at) / Fold change /veh C5orf56 (11738089_at) / RFU CYB561 (11721691_x_at) / Fold change /veh CYB561 (11721691_x_at) / RFU ANKRD19P (11752326_a_at) / Fold change /veh ANKRD19P (11752326_a_at) / RFU OR2T12 /// OR2T33 /// OR2T8 (11738714_s_at) / Fold change /veh OR2T12 /// OR2T33 /// OR2T8 (11738714_s_at) / RFU VCAN (11748164_a_at) / Fold change /veh VCAN (11748164_a_at) / RFU JSRP1 (11732532_at) / Fold change /veh JSRP1 (11732532_at) / RFU KRTAP10-11 (11738290_x_at) / Fold change /veh KRTAP10-11 (11738290_x_at) / RFU MYO3A (11730013_a_at) / Fold change /veh MYO3A (11730013_a_at) / RFU EBF3 (11725865_a_at) / Fold change /veh EBF3 (11725865_a_at) / RFU CAMK2N1 (11719241_x_at) / Fold change /veh CAMK2N1 (11719241_x_at) / RFU C5orf56 (11738088_a_at) / Fold change /veh C5orf56 (11738088_a_at) / RFU OLFML3 (11715873_a_at) / Fold change /veh OLFML3 (11715873_a_at) / RFU LOC100653217 /// NTM (11731650_a_at) / Fold change /veh LOC100653217 /// NTM (11731650_a_at) / RFU MAPK11 (11762145_a_at) / Fold change /veh MAPK11 (11762145_a_at) / RFU FIZ1 (11724087_x_at) / Fold change /veh FIZ1 (11724087_x_at) / RFU OASL (11726364_x_at) / Fold change /veh OASL (11726364_x_at) / RFU SOX15 (11748057_x_at) / Fold change /veh SOX15 (11748057_x_at) / RFU CD79A (11719716_a_at) / Fold change /veh CD79A (11719716_a_at) / RFU HIST1H1D (11736915_at) / Fold change /veh HIST1H1D (11736915_at) / RFU CASKIN2 (11723855_a_at) / Fold change /veh CASKIN2 (11723855_a_at) / RFU LOC730098 (11760151_x_at) / Fold change /veh LOC730098 (11760151_x_at) / RFU OR4N2 (11742367_at) / Fold change /veh OR4N2 (11742367_at) / RFU PRRT2 (11749266_a_at) / Fold change /veh PRRT2 (11749266_a_at) / RFU SNX32 (11753110_a_at) / Fold change /veh SNX32 (11753110_a_at) / RFU CDHR5 (11726645_a_at) / Fold change /veh CDHR5 (11726645_a_at) / RFU RCAN1 (11760418_a_at) / Fold change /veh RCAN1 (11760418_a_at) / RFU FAM167A (11723789_a_at) / Fold change /veh FAM167A (11723789_a_at) / RFU FAM26E (11764081_at) / Fold change /veh FAM26E (11764081_at) / RFU ISYNA1 (11749810_s_at) / Fold change /veh ISYNA1 (11749810_s_at) / RFU ACY1 (11761880_at) / Fold change /veh ACY1 (11761880_at) / RFU 11764098_at / Fold change /veh 11764098_at / RFU SAMD14 (11745864_x_at) / Fold change /veh SAMD14 (11745864_x_at) / RFU NPB (11741838_a_at) / Fold change /veh NPB (11741838_a_at) / RFU TMPRSS6 (11731388_a_at) / Fold change /veh TMPRSS6 (11731388_a_at) / RFU KRTAP10-2 (11738614_at) / Fold change /veh KRTAP10-2 (11738614_at) / RFU ARHGAP8 /// PRR5-ARHGAP8 (11727945_x_at) / Fold change /veh ARHGAP8 /// PRR5-ARHGAP8 (11727945_x_at) / RFU KRTAP5-7 /// NADSYN1 (11734609_at) / Fold change /veh KRTAP5-7 /// NADSYN1 (11734609_at) / RFU RASL12 (11751679_a_at) / Fold change /veh RASL12 (11751679_a_at) / RFU CDKN2B (11736163_a_at) / Fold change /veh CDKN2B (11736163_a_at) / RFU PRF1 (11729649_at) / Fold change /veh PRF1 (11729649_at) / RFU, ZNF638 /// ZNF638-IT1 / Fold change vs veh, ZNF638 /// ZNF638-IT1 / RFU, PANK3 / Fold change vs veh, PANK3 / RFU, SH3YL1 / Fold change vs veh, SH3YL1 / RFU, ZEB2 / Fold change vs veh, ZEB2 / RFU, NRIP1 / Fold change vs veh, NRIP1 / RFU, PTTG1IP / Fold change vs veh, PTTG1IP / RFU, CAPN2 / Fold change vs veh, CAPN2 / RFU, MED14 / Fold change vs veh, MED14 / RFU, SNORA58 / Fold change vs veh, SNORA58 / RFU, C1orf63 / Fold change vs veh, C1orf63 / RFU, LRRFIP1 / Fold change vs veh, LRRFIP1 / RFU, NDUFAF7 / Fold change vs veh, NDUFAF7 / RFU, SLC12A2 / Fold change vs veh, SLC12A2 / RFU, IBTK / Fold change vs veh, IBTK / RFU, ESF1 / Fold change vs veh, ESF1 / Fold change vs veh, TMEM50B / RFU, TAOK1 / Fold change vs veh, TAOK1 / RFU, ACBD3 / Fold change vs veh, ACBD3 / RFU, TMA16 / Fold change vs veh, TMA16 / RFU, RWDD3 / Fold change vs veh, RWDD3 / RFU, BCAT1 / Fold change vs veh, BCAT1 / RFU, EDEM3 / Fold change vs veh, EDEM3 / RFU, TMEM33 / Fold change vs veh, TMEM33 / RFU, WDR75 / Fold change vs veh, WDR75 / RFU, AHCTF1 / Fold change vs veh, AHCTF1 / RFU, TFRC / Fold change vs veh, TFRC / RFU, ZDHHC17 / Fold change vs veh, ZDHHC17 / RFU, NOM1 / Fold change vs veh, NOM1 / RFU, ARL8B / Fold change vs veh, ARL8B / RFU, ZBTB11 / Fold change vs veh, ZBTB11 / RFU, TAMM41 / Fold change vs veh, TAMM41 / RFU, KIAA1704 /// LOC100996395 / Fold change vs veh, KIAA1704 /// LOC100996395 / RFU, ING1 / Fold change vs veh, ING1 / RFU, TRMT61B / Fold change vs veh, TRMT61B / RFU, FUBP3 / Fold change vs veh, FUBP3 / RFU, TP53 / Fold change vs veh, TP53 / RFU, TNKS2 / Fold change vs veh, TNKS2 / RFU, ZFP14 / Fold change vs veh, ZFP14 / RFU, ACTR2 / Fold change vs veh, ACTR2 / RFU, PPP3R1 / Fold change vs veh, PPP3R1 / RFU, PIK3R1 / Fold change vs veh, PIK3R1 / RFU, HNRNPA1 / Fold change vs veh, HNRNPA1 / RFU, RNF170 / Fold change vs veh, RNF170 / RFU, ZNF28 / Fold change vs veh, ZNF28 / RFU, RNGTT / Fold change vs veh, RNGTT / RFU, OGT / Fold change vs veh, OGT / RFU, BRD1 / Fold change vs veh, BRD1 / RFU, MARS / Fold change vs veh, MARS / RFU, ZNF655 / Fold change vs veh, ZNF655 / RFU, FAHD1 / Fold change vs veh, FAHD1 / RFU, BDP1 / Fold change vs veh, BDP1 / RFU, LRRCC1 / Fold change vs veh, LRRCC1 / RFU, ARID1A / Fold change vs veh, ARID1A / RFU, ZNF146 / Fold change vs veh, ZNF146 / RFU, ZNF330 / Fold change vs veh, ZNF330 / RFU, GPN3 / Fold change vs veh, GPN3 / RFU, C9orf123 / Fold change vs veh, C9orf123 / RFU, N4BP2L2 / Fold change vs veh, N4BP2L2 / RFU, ARFIP1 / Fold change vs veh, ARFIP1 / RFU, FAM179B / Fold change vs veh, FAM179B / RFU, BCL10 / Fold change vs veh, BCL10 / RFU, UHRF1BP1L / Fold change vs veh, UHRF1BP1L / RFU, BET1 / Fold change vs veh, BET1 / RFU, CNOT2 / Fold change vs veh, CNOT2 / RFU, ZNF268 / Fold change vs veh, ZNF268 / Fold change vs veh, ZNF507 / RFU, DGCR2 / Fold change vs veh, DGCR2 / RFU, WDSUB1 / Fold change vs veh, WDSUB1 / Fold change vs veh, HSP90B1 /// MIR3652 / RFU, ADSS / Fold change vs veh, ADSS / RFU, GK / Fold change vs veh, GK / RFU, ZNF148 / Fold change vs veh, ZNF148 / RFU, TAF9 / Fold change vs veh, TAF9 / RFU, SLC1A5 / Fold change vs veh, SLC1A5 / RFU, SLMO2 / Fold change vs veh, SLMO2 / RFU, ABCC4 / Fold change vs veh, ABCC4 / RFU, LOC101060439 /// RAP1B / Fold change vs veh, LOC101060439 /// RAP1B / RFU, RFX7 / Fold change vs veh, RFX7 / RFU, GTPBP10 / Fold change vs veh, GTPBP10 / RFU, CNEP1R1 / Fold change vs veh, CNEP1R1 / RFU, BIVM-ERCC5 /// ERCC5 / Fold change vs veh, BIVM-ERCC5 /// ERCC5 / RFU, ILF3 / Fold change vs veh, ILF3 / RFU 11762660_at / Fold change /veh 11762660_at / RFU VCAN (11757783_s_at) / Fold change /veh VCAN (11757783_s_at) / RFU DDX43 (11728927_at) / Fold change /veh DDX43 (11728927_at) / RFU KRT8 (11758188_x_at) / Fold change /veh KRT8 (11758188_x_at) / RFU NKD1 (11759106_at) / Fold change /veh NKD1 (11759106_at) / RFU SRD5A1 (11742802_a_at) / Fold change /veh SRD5A1 (11742802_a_at) / RFU TPSAB1 /// TPSB2 (11721975_s_at) / Fold change /veh TPSAB1 /// TPSB2 (11721975_s_at) / RFU GSTM3 (11746129_a_at) / Fold change /veh GSTM3 (11746129_a_at) / RFU IL23R (11737362_x_at) / Fold change /veh IL23R (11737362_x_at) / RFU TMEM51 (11727254_a_at) / Fold change /veh TMEM51 (11727254_a_at) / RFU PIWIL2 (11732686_x_at) / Fold change /veh PIWIL2 (11732686_x_at) / RFU ORM1 (11744905_x_at) / Fold change /veh ORM1 (11744905_x_at) / RFU CCDC152 (11743942_at) / Fold change /veh CCDC152 (11743942_at) / RFU ECM1 (11717891_a_at) / Fold change /veh ECM1 (11717891_a_at) / RFU IL23R (11748794_a_at) / Fold change /veh IL23R (11748794_a_at) / RFU TNFAIP8L3 (11732012_x_at) / Fold change /veh TNFAIP8L3 (11732012_x_at) / RFU MBOAT4 (11741988_at) / Fold change /veh MBOAT4 (11741988_at) / RFU 11764193_at / Fold change /veh 11764193_at / RFU TMEM53 (11763286_at) / Fold change /veh TMEM53 (11763286_at) / RFU MAGEB2 (11727129_at) / Fold change /veh MAGEB2 (11727129_at) / RFU TMEM200A (11744735_a_at) / Fold change /veh TMEM200A (11744735_a_at) / RFU CCDC152 (11751479_a_at) / Fold change /veh CCDC152 (11751479_a_at) / RFU FAM211A (11726209_a_at) / Fold change /veh FAM211A (11726209_a_at) / RFU RGS16 (11746705_a_at) / Fold change /veh RGS16 (11746705_a_at) / RFU VCAN (11755009_s_at) / Fold change /veh VCAN (11755009_s_at) / RFU RHOB (11743442_s_at) / Fold change /veh RHOB (11743442_s_at) / RFU RGS16 (11720943_a_at) / Fold change /veh RGS16 (11720943_a_at) / RFU RGS16 (11720944_at) / Fold change /veh RGS16 (11720944_at) / RFU, VPS4B / Fold change vs veh, VPS4B / RFU, CREB1 / Fold change vs veh, CREB1 / RFU, DNAJC13 / Fold change vs veh, DNAJC13 / RFU, GNAQ / Fold change vs veh, GNAQ / RFU, CDK5R1 / Fold change vs veh, CDK5R1 / RFU, ZRANB3 / Fold change vs veh, ZRANB3 / RFU, CUL4A / Fold change vs veh, CUL4A / RFU, CCNY / Fold change vs veh, CCNY / RFU, UFL1 / Fold change vs veh, UFL1 / RFU, COG3 / Fold change vs veh, COG3 / RFU, DIAPH2 / Fold change vs veh, DIAPH2 / RFU, SKA2 / Fold change vs veh, SKA2 / RFU, AFF3 / Fold change vs veh, AFF3 / RFU, LMF1 / Fold change vs veh, LMF1 / RFU, IPO11 / Fold change vs veh, IPO11 / RFU, DFFB / Fold change vs veh, DFFB / RFU, FOXP1 / Fold change vs veh, FOXP1 / RFU, CARD8 / Fold change vs veh, CARD8 / RFU, STRN3 / Fold change vs veh, STRN3 / RFU, ADK / Fold change vs veh, ADK / RFU, RASSF2 / Fold change vs veh, RASSF2 / RFU, WIPF1 / Fold change vs veh, WIPF1 / RFU, LARP1B / Fold change vs veh, LARP1B / RFU, RASA1 / Fold change vs veh, RASA1 / RFU, RB1 / Fold change vs veh, RB1 / RFU, PPFIA1 / Fold change vs veh, PPFIA1 / RFU, MAT2A / Fold change vs veh, MAT2A / RFU, CCT5 / Fold change vs veh, CCT5 / RFU, WDR92 / Fold change vs veh, WDR92 / RFU, CUX1 / Fold change vs veh, CUX1 / RFU, TTC7A / Fold change vs veh, TTC7A / RFU, TMEM135 / Fold change vs veh, TMEM135 / RFU, DEPTOR / Fold change vs veh, DEPTOR / RFU, CPM / Fold change vs veh, CPM / RFU, DNAJB6 / Fold change vs veh, DNAJB6 / RFU, CACNA2D3 / Fold change vs veh, CACNA2D3 / RFU, DTX4 / Fold change vs veh, DTX4 / RFU, TFCP2 / Fold change vs veh, TFCP2 / RFU, GMCL1 /// GMCL1P1 / Fold change vs veh, GMCL1 /// GMCL1P1 / RFU, AEBP2 / Fold change vs veh, AEBP2 / RFU, SNHG1 /// SNORD22 /// SNORD25 /// SNORD26 /// SNORD27 /// SNORD28 /// SNORD29 /// SNORD31 / Fold change vs veh, SNHG1 /// SNORD22 /// SNORD25 /// SNORD26 /// SNORD27 /// SNORD28 /// SNORD29 /// SNORD31 / Fold change (Aza/veh), C12orf56 (ProbeSet 11735607_a_at) / Fold change (ACY-1035/veh), C12orf56 (ProbeSet 11735607_a_at) / Fold change (Aza/veh), FGFR1OP (ProbeSet 11751329_s_at) / Fold change (ACY-1035/veh), FGFR1OP (ProbeSet 11751329_s_at) / Fold change (Aza/veh), VPS36 (ProbeSet 11739960_a_at) / Fold change (ACY-1035/veh), VPS36 (ProbeSet 11739960_a_at) / RFU SYPL1 (11715823_x_at) / Fold change /veh SYPL1 (11715823_x_at) / RFU IGFBP7 (11715501_s_at) / Fold change /veh IGFBP7 (11715501_s_at) / RFU REEP3 (11722064_at) / Fold change /veh REEP3 (11722064_at) / RFU IGLL1 (11728026_x_at) / Fold change /veh IGLL1 (11728026_x_at): dose or concentration left out as unconfirmed
Details: MV-4-11 cells, 48 hours

Nc1ccc(-c2cccs2)cc1NC(=O)c1ccc2c(c1)cc(C1CC1)n2CCN1CCOCC1 [ACY-1035]
Fold change /veh MAGEB2 (11727129_at): 0.99
